From ChEMBL document CHEMBL4308851, “Alkyl-guanidine Compounds as Potent Broad-Spectrum Antibacterial Agents: Chemical Library Extension and Biological Characterization” (J Med Chem, 2018) come the findings set out here.

Data set [1] concerns Klebsiella pneumoniae. Kind of data set: Antibacterial activity against Klebsiella pneumoniae isolate SI-081 after 18 hrs by microdilution broth method. The data set is classed as functional. The conditions noted are these: isolate SI-081, 18 h. On the technique in general: Broth dilution looks for growth in wells or tubes with falling amounts of substance.
The next data set has as its system Enterococcus faecalis. Kind of data set: Antibacterial activity against Enterococcus faecalis ATCC 19433 after 18 hrs by microdilution broth method. The data set is classed as functional. The following applies: ATCC 19433, 18 h.
In data set [2] the test system is Escherichia coli. As to the kind of experiment: Antibacterial activity against Escherichia coli CCUG after 18 hrs by microdilution broth method.
Data set [3] has as its system Stenotrophomonas maltophilia. As to the kind of experiment: Antibacterial activity against Stenotrophomonas maltophilia isolate 634/08 after 18 hrs by microdilution broth method. The data set is classed as functional. The conditions noted are these: isolate 634/08, 18 h.
Data set [4] deals with Pseudomonas aeruginosa. As to the kind of experiment: Antibacterial activity against Pseudomonas aeruginosa ATCC 27853 after 18 hrs by microdilution broth method. The following applies: ATCC 27853, 18 h. The data set is classed as functional.
Data set [5] relates to Acinetobacter baumannii. As to the kind of experiment: Antibacterial activity against Acinetobacter baumannii isolate AC-54/97 after 18 hrs by microdilution broth method. It counts as functional. The conditions noted are these: isolate AC-54/97, 18 h.
Data set [6] deals with Klebsiella pneumoniae. Kind of data set: Antibacterial activity against Klebsiella pneumoniae ATCC […] after 18 hrs by microdilution broth method. The data set is classed as functional.
For the next data set, the system named is Staphylococcus aureus. As to the kind of experiment: Antibacterial activity against Staphylococcus aureus ATCC 25923 after 18 hrs by microdilution broth method. The data set is classed as functional. The following applies: ATCC 25923, 18 h.
A further data set concerns Bacillus spizizenii. Kind of data set: Antibacterial activity against Bacillus subtilis ATCC 6633 after 18 hrs by microdilution broth method. The data set is classed as functional. The following applies: ATCC 6633, 18 h.
The next data set deals with Burkholderia cepacia. As to the kind of experiment: Antibacterial activity against Burkholderia cepacia isolate SI-R2 after 18 hrs by microdilution broth method. The data set is classed as functional. The conditions noted are these: isolate SI-R2, 18 h.
The subject of a further data set is Enterobacter cloacae. As to the kind of experiment: Antibacterial activity against Enterobacter cloacae isolate VA-417/02 after 18 hrs by microdilution broth method. The data set is classed as functional. The following applies: isolate VA-417/02, 18 h.
In data set [7] the test system is Acinetobacter baumannii. Kind of data set: Antibacterial activity against Acinetobacter baumannii ATCC 17978 after 18 hrs by microdilution broth method. The data set is classed as functional. The following applies: ATCC 17978, 18 h.
Another data set deals with Streptococcus pyogenes. As to the kind of experiment: Antibacterial activity against Streptococcus pyogenes ATCC 12344 after 18 hrs by microdilution broth method. It counts as functional. The conditions noted are these: ATCC 12344, 18 h.
Data set [8] deals with Acinetobacter baumannii. As to the kind of experiment: Disruption of Acinetobacter baumannii ATCC 19606 outer membrane integrity assessed as induction of NPN uptake after 30 mins by NPN fluorescence-based assay. The data set is classed as functional, organism-based. The following applies: ATCC 19606 = CIP 70.34 = JCM 6841.
Data set [9] relates to Escherichia coli. Kind of data set: Antibiofilm activity against Escherichia coli MG1655 ATCC 47076 at half MIC concentration after 24 hrs by crystal violet-based assay. The data set is classed as functional, organism-based. The following applies: K-12 substr. MG1655 ATCC 47076.
The subject of data set [10] is Escherichia coli. Kind of data set: Disruption of inner membrane integrity in Escherichia coli MG1655 assessed as induction of […] conversion at 256 ug/ml measured at 10 mins intervals for 1 hr. The conditions noted are these: K-12 substr. MG1655. It counts as functional, organism-based.
Data set [11] relates to Pseudomonas aeruginosa. Kind of data set: Antibiofilm activity against Pseudomonas aeruginosa PAO1 ATCC 15692 assessed as effect on biofilm 3D structures at half MIC concentration after 24 hrs by AO-staining based confocal microscopy. It counts as functional, organism-based.
Data set [12] concerns Acinetobacter baumannii. As to the kind of experiment: Antibiofilm activity against Acinetobacter baumannii ATCC 19606 assessed as effect on biofilm 3D structures at half MIC concentration after 24 hrs by AO-staining based confocal microscopy. It counts as functional, organism-based. The following applies: ATCC 19606 = CIP 70.34 = JCM 6841.
A short description of data set [13]: Hemolytic activity against human erythrocytes assessed as induction of hemolysis at 64 ug/ml after 30 mins. It counts as cell-based, Erythrocyte. The following applies: read-out: Activity.
Data set [14] deals with Escherichia coli. As to the kind of experiment: Antibiofilm activity against Escherichia coli MG1655 ATCC 47076 assessed as effect on biofilm 3D structures at half MIC concentration after 24 hrs by AO-staining based confocal microscopy. The data set is classed as functional, organism-based. The following applies: K-12 substr. MG1655 ATCC 47076.
In data set [15] the test system is Pseudomonas aeruginosa. As to the kind of experiment: Antibiofilm activity against Pseudomonas aeruginosa PAO1 ATCC 15692 at half MIC concentration after 24 hrs by crystal violet-based assay. It counts as functional, organism-based.
For data set [16], the system named is Acinetobacter baumannii. As to the kind of experiment: Disruption of inner membrane integrity in Acinetobacter baumannii ATCC 19606 co-expressing pMP2200::PrrnB plasmid assessed as induction of […] conversion at 256 ug/ml measured at 10 mins intervals for 1 hr. It counts as functional, organism-based. The following applies: ATCC 19606 = CIP 70.34 = JCM 6841.

The subject of data set [17] is Escherichia coli. Kind of data set: Disruption of Escherichia coli MG1655 ATCC 47076 outer membrane integrity assessed as induction of NPN uptake after 30 mins by NPN fluorescence-based assay. The data set is classed as functional, organism-based. The conditions noted are these: K-12 substr. MG1655 ATCC 47076.
Data set [18] relates to Pseudomonas aeruginosa. As to the kind of experiment: Disruption of Pseudomonas aeruginosa PAO1 ATCC 15692 outer membrane integrity assessed as induction of NPN uptake after 30 mins by NPN fluorescence-based assay. The data set is classed as functional, organism-based.
Data set [19] deals with Acinetobacter baumannii. As to the kind of experiment: Antibiofilm activity against Acinetobacter baumannii ATCC 19606 at half MIC concentration after 24 hrs by crystal violet-based assay. The data set is classed as functional, organism-based. The following applies: ATCC 19606 = CIP 70.34 = JCM 6841.
Data set [20] relates to Pseudomonas aeruginosa. Kind of data set: Disruption of inner membrane integrity in Pseudomonas aeruginosa PAO1 ATCC 15692 co-expressing pMP2200::PrrnB plasmid assessed as induction of OPNG conversion at 256 ug/ml measured at 10 mins intervals for 1 hr. The data set is classed as functional, organism-based.

≈ marks a conversion by molar mass, not a printed value. Calls of active or inactive are those of the source. No cut-off for these calls is given here.

In the case of `CC(C)(C)OC(=O)/N=C(/NCCCCCCCCN(CCCCCCCCN/C(=N/C(=O)OC(C)(C)C)NC(=O)OC(C)(C)C)C(=O)N(CCCCCCCCN/C(=N/C(=O)OC(C)(C)C)N(CC1CC1)C(=O)OC(C)(C)C)CCCCCCCCN/C(=N/C(=O)OC(C)(C)C)N(CC1CC1)C(=O)OC(C)(C)C)NC(=O)OC(C)(C)C`, the minimal inhibitory concentration (MIC) (in the data set on Klebsiella pneumoniae [1]; in the data set on Enterococcus faecalis; with Escherichia coli [2]; in [3]; with Pseudomonas aeruginosa [4]; in the data set with Acinetobacter baumannii [5]) was at least 256 µg/mL each time. The minimal inhibitory concentration (MIC) against Klebsiella pneumoniae [6], in the data set on Staphylococcus aureus, against Bacillus spizizenii, against Burkholderia cepacia, against Enterobacter cloacae and against Acinetobacter baumannii [7] was at least 256 µg/mL throughout. This molecule returned an MIC in the data set on Streptococcus pyogenes of at least 256 µg/mL.

Take `N=C(N)NCCCCCCCCN(CCCCCCCCNC(=N)N)C(=O)N(CCCCCCCCNC(=N)N)CCCCCCCCNC(=N)N`: the minimum inhibitory concentration (MIC) against Enterococcus faecalis came out at 2 µg/mL (≈ 2.71 µM); against Escherichia coli [2], 4 µg/mL (≈ 5.43 µM); in the data set with Pseudomonas aeruginosa [4] it was 32 µg/mL (≈ 43.4 µM); in the data set on Klebsiella pneumoniae [6], 32 µg/mL (≈ 43.4 µM); in the data set on Staphylococcus aureus it was 2 µg/mL (≈ 2.71 µM); against Bacillus spizizenii, 32 µg/mL (≈ 43.4 µM). Further, the results for the minimum inhibitory concentration (MIC) against Acinetobacter baumannii [7] and against Streptococcus pyogenes were 16 µg/mL (≈ 21.7 µM) and 1 µg/mL (≈ 1.36 µM), respectively. The Activity entry with Acinetobacter baumannii [8], with Escherichia coli [17] and in the data set with Pseudomonas aeruginosa [18] was “Dose-dependent effect” each time. Further, the result with Escherichia coli [9], with Escherichia coli [10], with Pseudomonas aeruginosa [11], with Acinetobacter baumannii [12], in the data set with Escherichia coli [14] and in the data set on Pseudomonas aeruginosa [15] was inactive. The outcome with Acinetobacter baumannii [16], in the data set on Acinetobacter baumannii [19] and in the data set with Pseudomonas aeruginosa [20] was inactive. Also, the hemolysis at 0.5 h, 64 ug/ml in data set [13] was in the range of 0 to 7%.

Turning to `N=C(NCCCCCCCCN(CCCCCCCCNC(=N)NCC1CC1)C(=O)N(CCCCCCCCNC(=N)NCC1CC1)CCCCCCCCNC(=N)NCC1CC1)NCC1CC1`, the MIC came out at 4 µg/mL (≈ 4.2 µM) in the data set with Klebsiella pneumoniae [1]; 4 µg/mL (≈ 4.2 µM) in the data set with Enterococcus faecalis; 16 µg/mL (≈ 16.8 µM) in the data set on Escherichia coli [2]; 8 µg/mL (≈ 8.39 µM) in data set [3]; 64 µg/mL (≈ 67.1 µM) in the data set on Pseudomonas aeruginosa [4]; 8 µg/mL (≈ 8.39 µM) in the data set with Acinetobacter baumannii [5]. Moreover, the minimum inhibitory concentration (MIC) was 4 µg/mL (≈ 4.2 µM) with Klebsiella pneumoniae [6]; 16 µg/mL (≈ 16.8 µM) in the data set on Staphylococcus aureus; 8 µg/mL (≈ 8.39 µM) against Bacillus spizizenii; 32 µg/mL (≈ 33.6 µM) with Burkholderia cepacia; 4 µg/mL (≈ 4.2 µM) in the data set with Enterobacter cloacae; 8 µg/mL (≈ 8.39 µM) in the data set on Acinetobacter baumannii [7]. Besides, in the data set on Streptococcus pyogenes, the minimum inhibitory concentration (MIC) came to 2 µg/mL (≈ 2.1 µM). Besides, the Activity entry with Acinetobacter baumannii [8], in the data set on Escherichia coli [17] and with Pseudomonas aeruginosa [18] was “Dose-dependent effect” throughout. Besides, the result with Escherichia coli [9], with Escherichia coli [10], with Pseudomonas aeruginosa [11], in the data set with Acinetobacter baumannii [12], in the data set on Escherichia coli [14] and with Pseudomonas aeruginosa [15] was inactive. Besides, the result in the data set with Acinetobacter baumannii [16], in the data set on Acinetobacter baumannii [19] and in the data set on Pseudomonas aeruginosa [20] was inactive. Besides, the hemolysis at 0.5 h, 64 ug/ml in data set [13] was in the range of 0 to 7%.

As to `CNC(=N)NCCCCCCCCN(CCCCCCCCNC(=N)N)C(=O)N(CCCCCCCCNC(=N)N)CCCCCCCCNC(=N)NC`, the MIC with Klebsiella pneumoniae [1] was determined as 8 µg/mL (≈ 10.5 µM); against Enterococcus faecalis, 1 µg/mL (≈ 1.31 µM); in the data set on Escherichia coli [2] it was 1 µg/mL (≈ 1.31 µM); in [3], 16 µg/mL (≈ 20.9 µM); in the data set on Pseudomonas aeruginosa [4] it was 8 µg/mL (≈ 10.5 µM); against Acinetobacter baumannii [5] it was 4 µg/mL (≈ 5.23 µM). Besides, the MIC against Klebsiella pneumoniae [6] came to 4 µg/mL (≈ 5.23 µM); with Staphylococcus aureus it was 0.5 µg/mL (≈ 0.653 µM); in the data set with Bacillus spizizenii, 0.5 µg/mL (≈ 0.653 µM); in the data set with Burkholderia cepacia, 32 µg/mL (≈ 41.8 µM); in the data set on Enterobacter cloacae it was 4 µg/mL (≈ 5.23 µM); against Acinetobacter baumannii [7], 8 µg/mL (≈ 10.5 µM). Moreover, in the data set with Streptococcus pyogenes, it took 0.5 µg/mL (≈ 0.653 µM) to inhibit growth (MIC).

Take `CCNC(=N)NCCCCCCCCN(CCCCCCCCNC(=N)NCC)C(=O)N(CCCCCCCCNC(=N)NCC)CCCCCCCCNC(=N)NCC`: the MIC in the data set with Klebsiella pneumoniae [1] came out at 8 µg/mL (≈ 9.42 µM); with Enterococcus faecalis, 1 µg/mL (≈ 1.18 µM); in the data set with Escherichia coli [2], 2 µg/mL (≈ 2.35 µM); in [3], 32 µg/mL (≈ 37.7 µM); against Pseudomonas aeruginosa [4] it was 32 µg/mL (≈ 37.7 µM); in the data set on Acinetobacter baumannii [5] it was 8 µg/mL (≈ 9.42 µM). In addition, the minimum inhibitory concentration (MIC) turned out to be 4 µg/mL (≈ 4.71 µM) in the data set with Klebsiella pneumoniae [6]; 0.5 µg/mL (≈ 0.589 µM) in the data set on Staphylococcus aureus; 0.5 µg/mL (≈ 0.589 µM) against Bacillus spizizenii; 32 µg/mL (≈ 37.7 µM) against Burkholderia cepacia; 2 µg/mL (≈ 2.35 µM) against Enterobacter cloacae; 16 µg/mL (≈ 18.8 µM) with Acinetobacter baumannii [7]. Further, the minimal inhibitory concentration (MIC) in the data set on Streptococcus pyogenes worked out at 0.25 µg/mL (≈ 0.294 µM).

For orientation: MIC means the lowest concentration that inhibits growth of the organism.
